# Laboratory results as given in patent US11986470B2, “Methods of treating prostate cancer” (Janssen Pharmaceutica NV, priority 2016, dated 2024).
# Where two headings read alike, the source gives them in different places.
# Assays:
# γ-H2AX in 22RV1 cells = details: 22RV1 (printed 22AV1), 18 hours
# [1] = test system: C4-2B human prostate tumors
# C4-2B cells = assay: cells; details: 7-day niraparib treatment
# Procedure: (§1) In vitro cytotoxicity of niraparib was assessed in 5 human prostate cancer cell lines: C4-2B, LNCaP, LNCaP AR.TB, VCaP, and 22Rv1. C4-2B, LNCaP, LNCaP AR.TB, and 22Rv1 cell lines were grown in RPMI1640±GlutaMAX™-I medium (Life Technologies #61870-036) supplemented with 10% heat-inactivated fetal bovine serum (FBS) (Life Technologies 416140-071) and non-essential amino acids (NEAA) (Life Technologies #11140-050); and VCaP cells were grown in DMEM+GlutaMAX™-I medium (Life Technologies ##10569-010) with 10% FBS and NEAA. VCaP cells were subcultured every 7 days; other lines were split every 3-4 days. Cell growth kinetics of each cell line were determined by seeding cells at several densities and monitoring growth at intervals up to 7 days. Growth was determined using the Promega Cell TiterGlo reagent (#G7571) to measure cellular ATP by means of a chemiluminescent luciferin-luciferase reaction. […] For niraparib cytotoxicity experiments, cells were harvested by brief trypsinization and each line was seeded to the inner 60 wells of 96-well plates in 100 μL of medium at an appropriate density for a 7-day treatment. The outer wells of each plate were filled with Dulbecco's phosphate buffered saline (DPBS; Life Technologies #14190-144) to reduce evaporation from test wells. Cells were rested overnight in the plates at 37° C. in a humidified 5% CO2 incubator. […] The final vehicle concentration was 0.5% DMSO. Cells were cultured for 7 days. Relative cell viability after treatment was determined using Cell TiterGlo reagent, as above. All luminescent output values were normalized to percent inhibition based on mean luminescence of the untreated control wells, and the mean percent inhibition of the vehicle control wells was subtracted from each treatment value. Percent inhibition was plotted vs log μM concentration in GraphPad Prism 7.00. Nonlinear regression and calculation of EC50 values were performed using the log(agonist) vs. response—Variable slope (four parameters) fit.
# LNCaP AR.TB cells = assay: cells; details: Homo sapiens, 168 h
# Procedure: as §1
# LNCaP cells = assay: cells; details: Homo sapiens, 168 h
# Procedure: as §1
# 22Rv1 cells = assay: cells; details: Homo sapiens, 22Rv1, 168 h
# Procedure: as §1
# VCaP cells = assay: cells; details: 7-day niraparib treatment
# Procedure: as §1
# [2] = test system: poly(ADP)ribose (PAR) formation in VCaP cells; details: 0.01-100 μM, two hours
# Procedure: (§2) PAR inhibition using niraparib was assessed in 2 human prostate cancer cell lines, C4-2B and VCaP. The C4-2B cell line was grown in RPMI1640±GlutaMAX™-I medium supplemented with 10% FBS and NEAA and split every 3-4 days. VCaP cells were grown in DMEM+GlutaMAX™-I medium with FBS and NEAA and subcultured every 7 days.
# (§3) Cells were harvested by brief trypsinization and each line was seeded into 6-well plates in 1 mL of medium at an appropriate density. An extra 500 μL of complete medium was added, for a total volume per well of 1.5 mL. Cells were rested overnight in the plates at 37° C. in a humidified 5% CO2 incubator. The next day, medium was removed from plates and cells were washed using 1 mL serum free medium (RPMI or DMEM respectively). Treatment was initiated by addition of 1 mL of niraparib (final concentrations 100, 10, 1, 0.1, 0.01 and 0 μM in 0.1% DMSO) in the appropriate medium to triplicate wells. Plates were returned to the incubator for two hours.
# (§4) Following treatment, extracts were prepared using reagents and procedures provided in the HT PARP in vivo Pharmacodynamic Assay II (Trevigen #4520-096-K). Medium was removed from each well and placed into separate labeled microfuge tubes, and the plates were placed on ice. The tubes were spun at 1500 rpm for 4 minutes to pellet any cells that detached from the plate during drug incubation.
# (§5) Samples were assayed in duplicate.
# [3] = test system: poly(ADP)ribose (PAR) formation in C4-2B cells; details: 0.01-100 μM, two hours
# Procedure: as §2, §3, §4, §5
# γ-H2AX in C4-2B cells = details: C4-2B (printed C4-28), 18 hours
# [4] = test system: γ-H2AX in LNCaP AR.TB cells; details: 18 hours
smiles,measurement,setting,value
"NC(=O)c1cccc2cn(-c3ccc([C@@H]4CCCNC4)cc3)nc12 [niraparib, 2-[4-[(3S)-piperidin-3-yl]phenyl]indazole-7-carboxamide]",1st Significant Concentration (minimum concentration that induces significant change in γ-H2AX),γ-H2AX in 22RV1 cells,1.57 µM
same,tumor growth inhibition (TGI),"[1]; 25 mg/kg QD p.o., days 22 and 24, not significant",~12%
same,tumor growth inhibition (TGI),"[1]; 50 mg/kg QD p.o., days 18, 22 and 24, significant",~40%
same,EC50,C4-2B cells,1.22 µM
same,EC50,"C4-2B cells; Homo sapiens, 168 h",~1.2 µM
same,EC50,LNCaP AR.TB cells,2.14 µM
same,EC50,LNCaP cells,3.5 µM
same,EC50,22Rv1 cells,3.52 µM
same,EC50,VCaP cells,4.1 µM
same,EC50,"VCaP cells; Homo sapiens, 168 h",4.1 µM
same,PAR (pg PAR/mg of protein),[2],reduced in a dose-dependent fashion
same,PAR (pg PAR/mg of protein),[3],reduced in a dose-dependent fashion
same,1st Significant Concentration (minimum concentration that induces significant change in γ-H2AX),γ-H2AX in C4-2B cells,1.57 µM
same,1st Significant Concentration (minimum concentration that induces significant change in γ-H2AX),[4],3.13 µM
